In US6723364B1, “Fog treatment method using a liquid composition for treating fruits and vegetables and implementing device” (Xeda International, priority 1998, dated 2004):
Converted amounts (≈) assume the structure as drawn. Like-named read-outs stand apart in the source and are kept apart here.

What was measured:
[1] = tested on: Escherichia coli; test: Bactericidal activity in vitro in LB agar medium; assay type: cell-based; conditions: read-out: MIC (concentration needed to completely inhibit the growth of the bacteria)
Experimental: The bactericidal activity of eugenol and isoeugenol was evaluated in vitro and compared with that of other terpenes.
The culture medium used is the following LB medium:
Bactotryptone: 1% by weight
Yeast extract: 0.5% by weight
A suspension of bacteria at 10^6 CFU/ml was prepared in sterilized water from the LB medium. 200 μl of this bacterial suspension were added to 20 ml of presterilized LB culture medium brought to 55° C. The tested terpene is then added to the culture medium. After agitation, the medium is immediately divided among Petri dishes. The medium solidifies on cooling.
Incubation is carried out at 28° C. when the bacterium is Erwinia carotovora and at 37° C. when the bacterium is Escherichia coli.
The growth of mould in the culture medium is observed. The same experiment is carried out in the absence of terpene (control experiment).
The protocol used is that described above.

[2] = tested on: Geocrichum candidum; test: Fungicidal activity in vitro: mycelial growth on Cristomalt agar; assay type: cell-based; conditions: for Inhibition grades: MIC expressed on the scale of Table 2; for MIC: read-out: MIC (content giving complete inhibition of mycelial growth)
Experimental: (§1) The Cristomalt medium used for the evaluations of the fungicidal activities comprises 0.1% of Cristomalt (malt extract) and 0.2% of agar.
(§2) This culture medium is, after sterilization, brought to 55° C. The terpene compound tested is then introduced in the pure form into the culture medium under warm conditions. Immediately after agitating, the medium, enriched with the terpene product, is poured into Petri dishes (diameter 9 cm, filled with 20 ml of medium). The agar-comprising medium solidifies on cooling. The Petri dishes are then inoculated with plugs, with a diameter of 6 mm, withdrawn from the edge of a culture of the tested fungus, which culture is obtained on Cristomalt medium.
(§3) Inoculation is carried out at 22° C.
(§4) The mycelial growth was determined periodically (5 to 15 days, according to the species of fungus).
(§5) The results are expressed in Table 3 below in terms of MIC, which is the content (in μg/ml) which makes it possible to obtain complete inhibition of mycelial growth.
(§6) In f act, each experiment was carried out several times, so that, for each terpene and for each species of fungus, a minimum value and a maximum value were obtained.

[3] = tested on: Phytophtora parasitica; test: as above; assay type: cell-based; conditions: for Inhibition grades: MIC expressed on the scale of Table 2; for MIC: read-out: MIC (content giving complete inhibition of mycelial growth)
Experimental: as §1, §2, §3, §4, §5, §6

[4] = tested on: Fusarium oxysporum; test: as above; assay type: cell-based; conditions: for MIC: Fusarium oxysporum, read-out: MIC (content giving complete inhibition of mycelial growth); for Inhibition grades: OF, MIC expressed on the scale of Table 2
Experimental: as §1, §2, §3, §4, §5, §6

[5] = tested on: Penicillium digitatum; test: as above; assay type: cell-based; conditions: for Inhibition grades: MIC expressed on the scale of Table 2; for MIC: Penicillium digitatum, read-out: MIC (content giving complete inhibition of mycelial growth)
Experimental: as §1, §2, §3, §4, §5, §6

[6] = tested on: Gliocladium roseum; test: as above; assay type: cell-based; conditions: for MIC: Clonostachys rosea, read-out: MIC (content giving complete inhibition of mycelial growth); for Inhibition grades: MIC expressed on the scale of Table 2
Experimental: as §1, §2, §3, §4, §5, §6

[7] = tested on: Botrytis cinerea; test: as above; assay type: cell-based; conditions: for Inhibition grades: MIC expressed on the scale of Table 2; for MIC: Botrytis cinerea, read-out: MIC (content giving complete inhibition of mycelial growth)
Experimental: as §1, §2, §3, §4, §5, §6

[8] = tested on: Penicillium expansum; test: as above; assay type: cell-based; conditions: for Inhibition grades: MIC expressed on the scale of Table 2; for MIC: Penicillium expansum, read-out: MIC (content giving complete inhibition of mycelial growth)
Experimental: as §1, §2, §3, §4, §5, §6

[9] = tested on: Alternaria alternata; test: as above; assay type: cell-based; conditions: for Inhibition grades: MIC expressed on the scale of Table 2; for MIC: Alternaria alternata, read-out: MIC (content giving complete inhibition of mycelial growth)
Experimental: as §1, §2, §3, §4, §5, §6

[10] = tested on: Phlyctaena vagabonda (“Gloeosporium”); test: as above; assay type: cell-based; conditions: for Inhibition grades: MIC expressed on the scale of Table 2; for MIC: read-out: MIC (content giving complete inhibition of mycelial growth)
Experimental: as §1, §2, §3, §4, §5, §6

[11] = tested on: species of fungus (AA, BC, FO, GC, GR, PD, PE, PV, PhP); test: Fungicidal activity in vitro: total of inhibition grades over the nine species of fungus; assay type: cell-based; conditions: sum of the grades over the nine fungi
Experimental: as §1, §2, §3, §4
The results obtained are analysed simply by using the assessment scale illustrated in Table 2:
The results obtained have been expressed in Table 3 using the scale in Table 2.

[12] = tested on: potato tubers; test: Sprouting-inhibiting treatment of potato tubers by thermal fogging; assay type: in vivo; conditions: after 5 months; cold room 8 to 9° C.; 45 g/tonne then 15 g/tonne every 20 days by thermal fogging
Experimental: The effectiveness of eugenol and of isoeugenol in the sprouting-inhibiting treatment of potato tubers was evaluated and compared with that of other terpenes.
The following compositions were used in the case of eucalyptol, eugenol, isoeugenol, limonene, safrole and terpineol:
60% by weight of terpene;
7% by weight of a nonionic emulsifier;
33% by weight of butyl acetate.
In the case of L-carvone, the following composition was employed:
30% by weight of L-carvone;
10% by weight of ethanol;
5% by weight of nonionic emulsifier;
35% by weight of propylene glycol.
Isopropyl chlorophenylcarbamate (CIPC) is a compound used in the art as sprouting inhibitor for potato tubers. Its activity was compared with that of eugenol and of isoeugenol.
The composition based on isopropyl chloro-phenylcarbamate has the following formulation: […]
20% by weight of isopropyl chlorophenyl-carbamate;
50% by weight of propylene glycol;
10% by weight of nonionic emulsifier;
Each of the compositions tested was applied by thermal fogging. The temperature at the outlet of the thermal fogging device was 240° C., except in the case of the compositions based on L-carvone and on CIPC, where it was 180° C.
The amount of composition which has to be applied is calculated in each case so as to obtain an equivalent concentration of active material on the potato tubers.
In this example, repeated applications were carried out by following the following protocol:
45 g/tonne of tubers at the beginning of storage;
15 g/tonne of tubers every 20 days; so that, after 6 months, 165 g of active principle have been applied per tonne of tubers.
During storage, the tubers were stored in a cold room at a temperature of 8 to 9° C.

[13] = GC, min-max range of several experiments, 22° C.
[14] = PhP, min-max range of several experiments, 22° C.
[15] = FO, min-max range of several experiments, 22° C.
[16] = PD, min-max range of several experiments, 22° C.
[17] = GR, min-max range of several experiments, 22° C.
[18] = BC, min-max range of several experiments, 22° C.
[19] = PE, min-max range of several experiments, 22° C.
[20] = AA, min-max range of several experiments, 22° C.
[21] = PV, min-max range of several experiments, 22° C.

Structure (SMILES)	Inhibition grades ([2]; GC)	Inhibition grades ([3]; PhP)	Inhibition grades [4]	Inhibition grades ([5]; PD)	Inhibition grades ([6]; GR)	Inhibition grades ([7]; BC)	Inhibition grades ([8]; PE)	Inhibition grades ([9]; AA)	Inhibition grades ([10]; PV)	Total of the degrees of inhibition [11]	Loss in weight of the tubers [12] [%]	Total weight of the sprouts >2 mm [12] [g]	Tubers at the white point stage [12] [%]	Tubers with sprouts 2 to 5 mm [12] [%]	Tubers with sprouts <2 mm [12] [%]	Tubers with sprouts >2 mm [12] [%]	Tubers with sprouts >5 mm [12] [%]	Unsprouted tubers [12] [%]	MIC ([1]; Escherichia sp., 37° C.) [µg/mL]	MIC [2, 13] [µg/mL]	other results
C=CCc1ccc2c(c1)OCO2 [SAFROLE, safrole]	4 (160-320)	6 (40-80)	5 (80-160)	4 (160-320)	6 (40-80)	5 (80-160)	2 (640-1280)	5 (80-160)	5 (80-160)	42	3.6	57.0	6.6	40.1	15.6	76.6	36.5	1.2	–	–	MIC [1]: > 640 µg/mL; MIC [2]: 160 to 230 µg/mL (≈ 987 to 1420 µM); MIC [3]: 40 to 80 µg/mL (≈ 247 to 493 µM); MIC [4]: 80 to 160 µg/mL (≈ 493 to 987 µM); MIC [5]: 160 to 230 µg/mL (≈ 987 to 1420 µM); MIC [6]: 40 to 80 µg/mL (≈ 247 to 493 µM); MIC [7]: 80 to 160 µg/mL (≈ 493 to 987 µM); MIC [8]: 640 to 1280 µg/mL (≈ 3950 to 7890 µM); MIC [9]: 80 to 160 µg/mL (≈ 493 to 987 µM); MIC [10]: 80 to 160 µg/mL (≈ 493 to 987 µM)
C=CCc1ccc(O)c(OC)c1 [EUGENOL, eugenol]	8 (10-20)	7 (20-40)	7 (20-40)	7 (20-40)	7 (20-40)	7 (20-40)	7 (20-40)	7 (20-40)	6 (40-80)	63	2.6	3.6	45.3	6.2	35.2	12.0	5.8	7.5	40 to 80 (≈ 244 to 487 µM)	10 to 20 (≈ 60.9 to 122 µM)	MIC [3, 14]: 20 to 40 µg/mL (≈ 122 to 244 µM); MIC [4, 15]: 20 to 40 µg/mL (≈ 122 to 244 µM); MIC [5, 16]: 20 to 40 µg/mL (≈ 122 to 244 µM); MIC [6, 17]: 20 to 40 µg/mL (≈ 122 to 244 µM); MIC [7, 18]: 20 to 40 µg/mL (≈ 122 to 244 µM); MIC [8, 19]: 20 to 40 µg/mL (≈ 122 to 244 µM); MIC [9, 20]: 20 to 40 µg/mL (≈ 122 to 244 µM); MIC [10, 21]: 40 to 80 µg/mL (≈ 244 to 487 µM)
C=C(C)C1CC=C(C)C(=O)C1 (stereo not shown) [CARVONE, carvone]	5 (80-160)	6 (40-80)	6 (40-80)	6 (40-80)	6 (40-80)	7 (20-40)	5 (80-160)	6 (40-80)	5 (80-160)	52	–	–	–	–	–	–	–	–	320 to 640 (≈ 2130 to 4260 µM)	80 to 160 (≈ 533 to 1070 µM)	MIC [3, 14]: 40 to 80 µg/mL (≈ 266 to 533 µM); MIC [4, 15]: 40 to 80 µg/mL (≈ 266 to 533 µM); MIC [5, 16]: 40 to 80 µg/mL (≈ 266 to 533 µM); MIC [6, 17]: 40 to 80 µg/mL (≈ 266 to 533 µM); MIC [7, 18]: 20 to 40 µg/mL (≈ 133 to 266 µM); MIC [8, 19]: 80 to 160 µg/mL (≈ 533 to 1070 µM); MIC [9, 20]: 40 to 80 µg/mL (≈ 266 to 533 µM); MIC [10, 21]: 80 to 160 µg/mL (≈ 533 to 1070 µM)
